Results: patent publication US12187773B2, “Modified GIP peptide analogues” (Antag Therapeutics ApS, priority 2018, dated 2025)
Where two headings read alike, the source gives them in different places. Where a SMILES comes first, the peptide text is derived from it. The star is where a group is joined. C16 diacid = O=C(O)CCCCCCCCCCCCCCC(=O)*

How the values were obtained:
human GIP receptor [1] = biological target: T1, human GIP receptor (Homo sapiens, UniProt P48546); experiment: cAMP accumulation, antagonism (DiscoveRx HitHunter cAMP XS assay); type: cell-based; design: host or cells: COS-7 (transient, calcium phosphate; pCMV-Script vector)
T1 sequence (P48546 22-466): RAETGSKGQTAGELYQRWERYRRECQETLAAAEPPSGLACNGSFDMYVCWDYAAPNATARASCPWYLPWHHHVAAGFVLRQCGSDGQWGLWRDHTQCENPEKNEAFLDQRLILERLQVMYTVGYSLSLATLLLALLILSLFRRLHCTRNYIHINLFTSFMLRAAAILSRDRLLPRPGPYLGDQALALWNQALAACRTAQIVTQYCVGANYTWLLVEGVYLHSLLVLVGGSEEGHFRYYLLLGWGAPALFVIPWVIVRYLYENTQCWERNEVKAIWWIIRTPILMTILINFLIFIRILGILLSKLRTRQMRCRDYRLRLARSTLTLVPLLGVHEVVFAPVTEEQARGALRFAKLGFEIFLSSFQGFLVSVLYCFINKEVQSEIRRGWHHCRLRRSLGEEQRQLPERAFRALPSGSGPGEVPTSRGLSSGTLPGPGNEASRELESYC
Summary of the method: (§1)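 cAMP accumulation measured by HitHunter cAMP XS in COS-7 cells transiently expressing human GIP receptor, after 30 min in HBS with 1 mM IBMX at 37 °C. Antagonists preincubated 10 min before GIP giving 50-80% of maximum, then 20 min more; agonist mode used 30 min ligand exposure.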

glucagon receptor (GcgR) = biological target: T2, glucagon receptor (GcgR) (Homo sapiens, UniProt P47871); experiment: cAMP assay - selectivity, antagonism at glucagon receptor; type: cell-based; settings: Table 3A; COS-7 cells; agonist glucagon at 50-80% of maximal cAMP
T2 construct: expressed in transfected cells; host or cells: COS-7 (transient)
T2 sequence (P47871 26-477, species assumed): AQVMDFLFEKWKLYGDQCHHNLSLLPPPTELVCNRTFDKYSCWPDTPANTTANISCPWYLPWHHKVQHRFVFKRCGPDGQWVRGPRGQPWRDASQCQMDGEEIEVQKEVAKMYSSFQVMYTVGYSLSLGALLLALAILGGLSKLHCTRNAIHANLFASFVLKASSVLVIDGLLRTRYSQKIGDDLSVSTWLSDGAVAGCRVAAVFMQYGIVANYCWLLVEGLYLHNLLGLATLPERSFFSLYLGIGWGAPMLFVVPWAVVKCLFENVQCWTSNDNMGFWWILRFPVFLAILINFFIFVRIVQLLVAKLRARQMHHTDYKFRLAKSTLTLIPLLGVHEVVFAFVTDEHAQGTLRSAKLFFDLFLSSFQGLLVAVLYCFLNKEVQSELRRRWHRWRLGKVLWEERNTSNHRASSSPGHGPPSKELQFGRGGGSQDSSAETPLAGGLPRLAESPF
Protocol: (§2) Transient transfected COS-7 cells expressing the either of the GLP1 receptor (GLP1R), GLP2 receptor (GLP2R), glucagon receptor (GcgR) or secretin receptor (SCTR) were seeded in white 96-well plates with a density of 3.5*10^4/well. The day after, the cells were washed twice with Hepes buffered saline (HBS) buffer and incubated with HBS and 1 mM 3-isobutyl-1-methylxanthine (IBMX) for 30 min at 37° C. To test for agonistic properties, ligands were added and incubated for 30 min at 37° C. In order to test for antagonistic properties, the cells were preincubated with the antagonists for 10 min prior to the addition the natural agonist for the expressed receptor (GLP1 for GLP1R expressing cells, GLP2 for GLP2R expressing cells, glucagon for the GcgR and secretin for the SCTR) and subsequent incubated for 20 additional min. […] The HitHunter™ cAMP XS assay (DiscoveRx) was carried out according to the manufacturer's instructions.

human GIP receptor [2] = biological target: T1, human GIP receptor; experiment: cAMP antagonism (CisBio cAMP Dynamic 2 HTRF assay); type: cell-based; design: pCMV-Script vector
Summary of the method: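 Four-parameter fits of cAMP dose-response gave pIC50. cAMP fall was quantified by HTRF competition, ratio 665/620 nm after 60 min at room temperature, against a cAMP standard curve.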

secretin receptor (SCTR) = biological target: T3, secretin receptor (SCTR) (Homo sapiens, UniProt P47872); experiment: cAMP assay - selectivity, antagonism at secretin receptor; type: cell-based; settings: Table 3B; COS-7 cells; agonist secretin
T3 construct: expressed in transfected cells; host or cells: COS-7 (transient)
T3 sequence (P47872 23-440, species assumed): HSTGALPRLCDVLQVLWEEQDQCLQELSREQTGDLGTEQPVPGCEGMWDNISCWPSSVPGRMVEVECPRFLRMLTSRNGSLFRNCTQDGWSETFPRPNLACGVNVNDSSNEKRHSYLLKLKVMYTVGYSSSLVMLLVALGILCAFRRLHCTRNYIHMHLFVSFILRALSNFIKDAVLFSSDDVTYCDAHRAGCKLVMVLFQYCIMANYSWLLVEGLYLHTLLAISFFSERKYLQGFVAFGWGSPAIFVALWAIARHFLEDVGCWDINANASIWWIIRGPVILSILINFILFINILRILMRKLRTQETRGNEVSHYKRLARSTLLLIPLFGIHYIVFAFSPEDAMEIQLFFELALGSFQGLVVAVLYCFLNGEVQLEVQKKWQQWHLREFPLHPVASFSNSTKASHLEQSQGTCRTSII
Protocol: as §2

GLP1 receptor (GLP1R) = biological target: T4, GLP1 receptor (GLP1R) (Homo sapiens, UniProt P43220); experiment: cAMP assay - selectivity, antagonism at GLP1 receptor; type: cell-based; settings: Table 3A
T4 construct: expressed in transfected cells; host or cells: COS-7 (transient)
T4 sequence (P43220 24-463, species assumed): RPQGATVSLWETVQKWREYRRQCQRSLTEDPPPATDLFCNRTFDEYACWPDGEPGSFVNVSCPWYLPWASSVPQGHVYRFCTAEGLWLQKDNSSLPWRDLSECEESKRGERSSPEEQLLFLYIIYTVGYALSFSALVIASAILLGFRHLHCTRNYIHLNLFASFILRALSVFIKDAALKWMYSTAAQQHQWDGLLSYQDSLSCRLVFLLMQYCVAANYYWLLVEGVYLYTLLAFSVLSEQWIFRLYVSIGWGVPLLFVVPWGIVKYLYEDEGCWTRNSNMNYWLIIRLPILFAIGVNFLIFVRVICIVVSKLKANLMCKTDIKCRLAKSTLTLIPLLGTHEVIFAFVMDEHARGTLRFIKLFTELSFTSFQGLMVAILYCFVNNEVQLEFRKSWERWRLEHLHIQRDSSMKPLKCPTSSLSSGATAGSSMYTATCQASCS
Protocol: as §2

GLP2 receptor (GLP2R) = biological target: T5, GLP2 receptor (GLP2R) (Homo sapiens, UniProt O95838); experiment: cAMP assay - selectivity, antagonism at GLP2 receptor; type: cell-based; settings: Table 3B; COS-7 cells; agonist GLP2
T5 construct: expressed in transfected cells; host or cells: COS-7 (transient)
T5 sequence (O95838 1-553): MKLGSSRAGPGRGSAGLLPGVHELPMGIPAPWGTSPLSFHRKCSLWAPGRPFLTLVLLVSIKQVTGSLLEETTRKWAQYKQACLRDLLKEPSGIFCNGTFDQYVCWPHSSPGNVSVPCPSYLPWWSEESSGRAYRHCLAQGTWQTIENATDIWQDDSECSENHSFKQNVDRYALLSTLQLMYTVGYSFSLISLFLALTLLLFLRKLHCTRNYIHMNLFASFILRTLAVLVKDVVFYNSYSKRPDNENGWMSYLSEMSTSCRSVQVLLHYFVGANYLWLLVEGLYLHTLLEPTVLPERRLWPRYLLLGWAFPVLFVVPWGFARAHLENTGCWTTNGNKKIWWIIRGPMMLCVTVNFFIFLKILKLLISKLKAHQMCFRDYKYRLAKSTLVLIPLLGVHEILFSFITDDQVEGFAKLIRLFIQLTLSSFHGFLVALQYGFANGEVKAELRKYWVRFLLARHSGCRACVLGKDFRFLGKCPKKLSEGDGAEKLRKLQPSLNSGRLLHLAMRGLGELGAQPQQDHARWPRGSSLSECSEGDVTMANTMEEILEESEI
Protocol: as §2

human GIP receptor [3] = biological target: T1, human GIP receptor; experiment: cAMP agonism (CisBio cAMP Dynamic 2 HTRF assay); type: cell-based
Protocol: To test for agonistic properties at the GIP receptor, compounds were diluted and added to cells as described above and incubated for 30 min at 37° C. The resulting increase in intracellular cAMP was determined using the CisBio cAMP Dynamic 2 HTRF Assay Kit as described above.

[4] = Elimination half-life (T1/2) estimated in Göttingen minipigs; type: in vivo
Protocol: 2-3 Göttingen minipigs were subcutaneously administered one of the GIP analogues of the present invention (1-10 nmol/kg, total volume 2-6 mL) and blood samples were collected before and up to 432 hours post subcutaneous administration.) from a central venous catheter. The catheter was flushed with saline and heparin between samples. Blood was collected into cold EDTA tubes, centrifuged and plasma was kept at −20° C. pending analyses.
Concentrations of the acylated GIP(3-30)NH2 or GIP(5-30)NH2 analogues in blood samples from Göttingen minipigs were analyzed by RIA. Analogues' immunoreactivity was determined using antiserum Ab95234, Ab95235, Ab95236, a polyclonal in-house antibody raised in rabbits specific for either the mid region of GIP(1-30)NH2 or amidated C-terminus of GIP(3-30)NH2.
In addition to the hormone analysis, blood concentrations of AT374, 380, 382-385, 392-393 were determined by LC/MS performed by Red Glead Discovery AB, Lund, Sweden. The plasma samples were precipitated by addition of 3 parts ethanol followed by thorough mixing. After centrifugation and dilution of the supernatant, the samples were analyzed by LC-MS/MS and compared with a 9-point calibration curve. The calibration curves were prepared in naïve plasma matrix from Göttingen minipigs.

human GIP receptor [5] = biological target: T1, human GIP receptor; experiment: cAMP accumulation, agonism (DiscoveRx HitHunter cAMP XS assay); type: cell-based; design: host or cells: COS-7 (transient, calcium phosphate; pCMV-Script vector); settings: Table 1B; DiscoveRx; COS-7 cells
Summary of the method: as §1

[6] = Table 3A/3B, DiscoveRx, COS-7 cells
[7] = GIPR, Antagonism, nM, Table 3C, CisBio assay
[8] = Table 1C, CisBio, HEK-293 cells
[9] = cAMP antagonism, nM (IC50), Table 1C, CisBio, HEK-293 cells, agonist GIP1-42 at EC50

## CC[C@H](C)[C@H](NC(=O)[C@H](CO)NC(=O)[C@H](Cc1ccc(O)cc1)NC(=O)[C@H](CC(=O)O)NC(=O)[C@H](CO)NC(=O)[C@@H](NC(=O)[C@@H](N)Cc1ccccc1)[C@@H](C)CC)C(=O)N[C@@H](C)C(=O)N[C@@H](CCSC)C(=O)N[C@@H](CC(=O)O)C(=O)N[C@@H](CCCCN)C(=O)N[C@H](C(=O)N[C@@H](CCCCNC(=O)CCCCCCCCCCCCCCC(=O)O)C(=O)N[C@@H](CCC(N)=O)C(=O)N[C@@H](CCC(N)=O)C(=O)N[C@@H](CC(=O)O)C(=O)N[C@@H](Cc1ccccc1)C(=O)N[C@H](C(=O)N[C@@H](CC(N)=O)C(=O)N[C@@H](Cc1c[nH]c2ccccc12)C(=O)N[C@@H](CC(C)C)C(=O)N[C@@H](CC(C)C)C(=O)N[C@@H](C)C(=O)N[C@@H](CCC(N)=O)C(=O)N[C@@H](CCCCN)C(N)=O)C(C)C)[C@@H](C)CC [AT353] (H-FISDYSIAMDKIK(C16 diacid)QQDFVNWLLAQK-NH2; N-terminus assumed)
Human GIP receptor [1]; GIPR, Antagonism, nM, Table 3A/3B, DiscoveRx, COS-7 cells
  IC50: 9 nM
Human GIP receptor [1]; IC50-value (GIPR antagonism), Examples 1 and 2, values of Tables 1B and 2
  IC50: 9 nM
Human GIP receptor [1]; Table 2, truncated GIP antagonists
  cAMP antagonism, % inhib: 100.0%
Human GIP receptor [1]; [6]
  GIPR, Antagonism, % inhib: 100.0%
Human GIP receptor [1]; cAMP antagonism, nM (IC50), Table 2, truncated GIP antagonists
  IC50: 9 nM
Glucagon receptor (GcgR)
  Glucagon R, Antagonism, nM: No antagonism
Human GIP receptor [2]; [7]
  IC50: 25.1 nM
Human GIP receptor [2]; [8]
  cAMP antagonism, % inhib: 90%
Human GIP receptor [2]; Table 3C, CisBio assay
  GIPR, Antagonism, % inhib: 90%
Human GIP receptor [2]; [9]
  IC50: 25.1 nM
Secretin receptor (SCTR)
  Secretin R, Antagonism: No antagonism
GLP1 receptor (GLP1R); COS-7 cells
  GLP-1R, Antagonism, %inhib: 43%
GLP1 receptor (GLP1R); selectivity index versus GIPR
  GLP-1R, Antagonism, index: 44
GLP2 receptor (GLP2R)
  GLP-2R, Antagonism: No antagonism
Human GIP receptor [3]; HEK293, read-out: cAMP agonism, % Efficacy, Table 1C, HEK-293 cells
  Emax: 0%

## CC[C@H](C)[C@H](NC(=O)[C@H](CO)NC(=O)[C@H](Cc1ccc(O)cc1)NC(=O)[C@H](CC(=O)O)NC(=O)[C@H](CO)NC(=O)[C@@H](NC(=O)[C@H](Cc1ccccc1)NC(=O)[C@@H](NC(=O)CNC(=O)[C@@H](N)CO)[C@@H](C)O)[C@@H](C)CC)C(=O)N[C@@H](C)C(=O)N[C@@H](CCSC)C(=O)N[C@@H](CC(=O)O)C(=O)N[C@@H](CCCNC(=N)N)C(=O)N[C@H](C(=O)N[C@@H](CCCCNC(=O)CCCCCCCCCCCCCCC(=O)O)C(=O)N[C@@H](CCC(N)=O)C(=O)N[C@@H](CCC(N)=O)C(=O)N[C@@H](CC(=O)O)C(=O)N[C@@H](Cc1ccccc1)C(=O)N[C@H](C(=O)N[C@@H](CC(N)=O)C(=O)N[C@@H](Cc1c[nH]c2ccccc12)C(=O)N[C@@H](CC(C)C)C(=O)N[C@@H](CC(C)C)C(=O)N[C@@H](C)C(=O)N[C@@H](CCC(N)=O)C(=O)N[C@@H](CCCNC(=N)N)C(N)=O)C(C)C)[C@@H](C)CC [AT392] (H-SGTFISDYSIAMDRIK(C16 diacid)QQDFVNWLLAQR-NH2; N-terminus assumed)
Human GIP receptor [1]; Table 1B, DiscoveRx, COS-7 cells, % inhibition of Emax
  cAMP antagonism, % inhib: 93%
Human GIP receptor [1]; [6]
  GIPR, Antagonism, % inhib: 93.0%
Human GIP receptor [1]; cAMP antagonism, nM (IC50), Table 1B, DiscoveRx, transiently transfected COS-7 cells
  IC50: 1 nM
[4]; Göttingen, minipig, plasma, subcutaneous, Example 1, read-out: T1/2 (converted)
  half-life: 6 h
[4]; sc, Table 1B, species not given, unit h, LC/MS in Göttingen minipig plasma for these IDs, subcutaneous 1-10 nmol/kg, read-out: T½ (converted)
  half-life: 6 h
Human GIP receptor [2]; [7]
  IC50: 68.1 nM
Human GIP receptor [2]; [8]
  cAMP antagonism, % inhib: 96%
Human GIP receptor [2]; Table 3C, CisBio assay
  GIPR, Antagonism, % inhib: 96%
Human GIP receptor [2]; [9]
  IC50: 68.1 nM
GLP1 receptor (GLP1R); COS-7 cells, agonist GLP1 at 50-80% of maximal cAMP
  GLP-1R, Antagonism, nM: No antagonism
Human GIP receptor [5]
  cAMP agonism, Emax: No Agonism
Human GIP receptor [3]; Table 1C, HEK-293 cells
  cAMP agonism, % Efficacy: 0%
